EC50 data for 17 compounds are collected here from patent US20230391774A1, “Novel Compounds” (AC Immune SA, priority 2020, published 2023).

pEC50: −log10 of the molar value. Counter-ions that a name gives are not always drawn.

Assay [1] addresses T1, Tau K18 fragment aggregates (amino acids 244 to 372 of human Tau441) (Homo sapiens, UniProt P10636).
T1 construct: encompassing amino acids 244 to 372 of the longest isoform (2N4R) of human Tau441; purchased Biotechne; host or cells: bacteria
Kind of assay: Tau K18 disaggregation assay by ThT. In kind it is biochemical. The note with it: ThT fluorescence; 2 μM K18 aggregates, 30 minutes at RT. The procedure:
Tau K18 Disaggregation Assay by ThT
The Tau K18 fragment, encompassing amino acids 244 to 372 of the longest isoform (2N4R) of human Tau441, was expressed in bacteria and purified (Biotechne). For the K18 disaggregation assay by ThT, 35 μM of recombinant K18 in PBS were aggregated for 24 hours at 37° C. in presence of 25 μM of heparin (Sigma-Aldrich) and 10 mM of 1,4-Dithiothreito (DTT from Sigma-Aldrich) under shaking at 750 RPM. Compound 1 was dissolved in anhydrous dimethyl sulfoxide (DMSO, Sigma-Aldrich) to reach a concentration of 10 mM. K18 aggregates and serial dilutions of compounds were mixed together in PBS (volume 50 μL) to a final concentration of 2 μM of K18 aggregates and from 400 to 0.1 μM of Compound 1. The mixture was incubated for 30 minutes at room temperature (RT), then 40 μL of this mixture were transferred into a black 384-well plate assay (Perkin-Elmer) and mixed with 10 μL of 100 μM ThT in 250 mM glycine (both from Sigma-Aldrich) in PBS. Fluorescence (relative fluorescence units; RFU) was measured in monoplicate or duplicate on a Tecan reader (excitation: 440 nm; emission: 485 nm). Percentage of K18 disaggregation was then calculated and half maximal effective concentration (EC50) was determined using GraphPad Prism version 8 (GraphPad Software) assuming a one-binding site fitting model, see Table 3 and Table 4.

Assay [2] has as its target T2, flTau aggregates (longest isoform of human Tau, 2N4R) (Homo sapiens, UniProt P10636).
T2 construct: 35 μM of recombinant full-length (fl) Tau in phosphate-buffered saline (PBS) were aggregated; purchased Biotechne; host or cells: bacteria
Briefly: Full-length Tau (flTau) disaggregation assay by Thioflavin T (ThT). The assay is classed as biochemical. The note with it: ThT fluorescence; 60 nM flTau aggregates, 30 minutes at RT; read-out: flTau disaggregation EC50. An outline of the steps: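 Recombinant 2N4R Tau (35 μM) pre-aggregated 72 h at 37 °C with 35 μM heparin and 10 mM DTT under shaking. Aggregates (60 nM final) incubated 30 min at RT in PBS with compound (20–0.0012 μM), then ThT added; fluorescence read at ex 440/em 485 nm and EC50 fitted to one-site model.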

T2 sequence (P10636 1-441 isoform P10636-8): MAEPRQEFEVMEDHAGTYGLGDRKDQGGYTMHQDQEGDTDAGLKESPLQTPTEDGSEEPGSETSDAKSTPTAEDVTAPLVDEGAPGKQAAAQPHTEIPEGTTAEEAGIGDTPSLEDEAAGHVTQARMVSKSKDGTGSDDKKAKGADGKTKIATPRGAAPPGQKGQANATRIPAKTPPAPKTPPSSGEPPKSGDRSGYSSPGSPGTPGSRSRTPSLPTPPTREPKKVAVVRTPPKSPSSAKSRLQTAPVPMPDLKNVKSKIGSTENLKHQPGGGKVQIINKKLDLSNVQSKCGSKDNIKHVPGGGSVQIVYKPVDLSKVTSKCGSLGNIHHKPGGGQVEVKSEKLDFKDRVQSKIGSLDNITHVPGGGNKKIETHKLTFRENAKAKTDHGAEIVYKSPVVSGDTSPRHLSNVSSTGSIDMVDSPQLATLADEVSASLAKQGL
T1 sequence (P10636 561-689): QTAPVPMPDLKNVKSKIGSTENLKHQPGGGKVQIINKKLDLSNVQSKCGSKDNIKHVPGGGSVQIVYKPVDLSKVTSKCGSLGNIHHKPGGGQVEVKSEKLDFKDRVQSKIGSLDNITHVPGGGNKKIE

`Cn1cc(C2=CCN(c3ccc4oc(N5CCOCC5)nc4c3)CC2)c2cc(F)cnc21` [Example 32, 5-(4-(5-fluoro-1-methyl-1H-pyrrolo[2,3-b]pyridin-3-yl)-3,6-dihydropyridin-1(2H)-yl)-2-morpholinobenzo[d]oxazole]: the negative logarithm of the EC50 (pEC50) was 5.00 to 6.00 in assay [1] and > 6.00 in assay [2].
Consider `Cn1cc(C2CCN(c3ccc4oc(N5CCOCC5)nc4c3)C2)c2cc(F)cnc21` (stereo not shown) [Example 33, 5-(3-(5-fluoro-1-methyl-1H-pyrrolo[2,3-b]pyridin-3-yl)pyrrolidin-1-yl)-2-morpholinobenzo[d]oxazole], for which the negative-log EC50 (pEC50) in assay [1] and in assay [2] was 5.00 to 6.00 each time.
Consider `c1ccc2c(C3CCN(c4cc5sc(N6CCOCC6)nc5cn4)CC3)n[nH]c2c1` [Example 35, 4-(6-(4-(1H-indazol-3-yl)piperidin-1-yl)thiazolo[4,5-c]pyridin-2-yl)morpholine], for which the pEC50 in assay [1] and in assay [2] was 5.00 to 6.00 in each case.
As for `c1ccc2c(Nc3ccc4oc(N5CCOCC5)nc4c3)n[nH]c2c1` [Example 36, N-(1H-indazol-3-yl)-2-morpholinobenzo[d]oxazol-5-amine], the pEC50 was 4.30 to 5.00 in assay [1] and 5.00 to 6.00 in assay [2].
`c1ccc2c(C3CCN(c4ccc5oc(N6CCOCC6)nc5c4)C3)n[nH]c2c1` (stereo not shown) [Example 37, 5-(3-(1H-indazol-3-yl)pyrrolidin-1-yl)-2-morpholinobenzo[d]oxazole]: the negative logarithm of the EC50 (pEC50) was > 6.00 in assay [1] and 5.00 to 6.00 in assay [2].
Consider `c1ccc2c(C3CCN(c4ccc5oc(N6CCOCC6)nc5c4)C3)n[nH]c2c1` (stereo not shown) [Example 38, 5-(3-(1H-indazol-3-yl)pyrrolidin-1-yl)-2-morpholinobenzo[d]oxazole], for which the negative-log EC50 (pEC50) in assay [1] and in assay [2] was 5.00 to 6.00 in each case.
Consider `c1ccc2c(C3CCN(c4cnc5nc(N6CCOCC6)sc5c4)CC3)n[nH]c2c1` [Example 41, 4-(6-(4-(1H-indazol-3-yl)piperidin-1-yl)thiazolo[4,5-b]pyridin-2-yl)morpholine], for which the pEC50 in assay [1] and in assay [2] was 5.00 to 6.00 throughout.
For `c1ccc2c(C3CCN(c4ccc5oc(N6CCOCC6)nc5n4)CC3)n[nH]c2c1` [Example 43, 5-(4-(1H-indazol-3-yl)piperidin-1-yl)-2-morpholinooxazolo[4,5-b]pyridine], the pEC50 in assay [1] and in assay [2] was 5.00 to 6.00 in each case.
For the compound `c1ccc2c(C3CCN(c4ccc5nc(N6CCOCC6)sc5c4)CC3)n[nH]c2c1` [Example 44, 4-(6-(4-(1H-indazol-3-yl)piperidin-1-yl)benzo[d]thiazol-2-yl)morpholine], the pEC50 in assay [1] and in assay [2] was 5.00 to 6.00 in each case.
Consider `Cn1cc(C#Cc2ccc3oc(N4CCOCC4)nc3c2)c2cc(F)cnc21` [Example 46, 5-((5-fluoro-1-methyl-1H-pyrrolo[2,3-b]pyridin-3-yl)ethynyl)-2-morpholinobenzo[d]oxazole], for which the pEC50 in assay [1] and in assay [2] was 5.00 to 6.00 each time.
As for `c1ccc2c(C3CCN(c4cnc5nc(N6CCOCC6)oc5c4)CC3)n[nH]c2c1` [Example 47, 6-(4-(1H-indazol-3-yl)piperidin-1-yl)-2-morpholinooxazolo[4,5-b]pyridine], the pEC50 is 4.30 to 5.00 in assay [1] and 5.00 to 6.00 in assay [2].
As to `C1=C(c2n[nH]c3ccccc23)CCN(c2ccc3oc(N4CCOCC4)nc3c2)C1` [Example 50, 5-(4-(1H-indazol-3-yl)-3,6-dihydropyridin-1(2H)-yl)-2-morpholinobenzo[d]oxazole], the negative-log EC50 (pEC50) in assay [1] and in assay [2] was > 6.00 in each case.
In the case of `Cn1cc(C2CCN(c3ccc4oc(N5CCOCC5)nc4c3)CC2)c2cc(F)ccc21` [Example 51, 5-(4-(5-fluoro-1-methyl-1H-indol-3-yl)piperidin-1-yl)-2-morpholinobenzo[d]oxazole], the figures for the pEC50 in assay [1] and in assay [2] were 4.30 to 5.00 and 5.00 to 6.00, respectively.
Regarding `COc1ccc2c(C3CCN(c4ccc5oc(N6CCOCC6)nc5c4)CC3)c[nH]c2n1` [Example 104, 5-(4-(6-methoxy-1H-pyrrolo[2,3-b]pyridin-3-yl)piperidin-1-yl)-2-morpholinobenzo[d]oxazole], the pEC50 in assay [1] and in assay [2] was 5.00 to 6.00 throughout.
For the compound `Cn1cc(C2CCN(c3cnc4nc(N5CCOCC5)sc4c3)CC2)c2cc(F)cnc21` [Example 109, 4-(6-(4-(5-fluoro-1-methyl-1H-pyrrolo[2,3-b]pyridin-3-yl)piperidin-1-yl)thiazolo[4,5-b]pyridin-2-yl)morpholine hydrochloride], the pEC50 is 4.30 to 5.00 in assay [1] and 5.00 to 6.00 in assay [2].
As to `Cn1cc(C2CCN(c3cc4sc(N5CCOCC5)nc4cn3)CC2)c2cc(F)cnc21` [Example 110, 4-(6-(4-(5-fluoro-1-methyl-1H-pyrrolo[2,3-b]pyridin-3-yl)piperidin-1-yl)thiazolo[4,5-c]pyridin-2-yl)morpholine hydrochloride], the pEC50 was 4.30 to 5.00 in assay [1] and 5.00 to 6.00 in assay [2].
The matching figures for `Cn1cc(C2CCN(c3ccc4nc(N5CCOCC5)oc4c3)CC2)c2cc(F)cnc21` [Example 111, 6-(4-(5-fluoro-1-methyl-1H-pyrrolo[2,3-b]pyridin-3-yl)piperidin-1-yl)-2-morpholinobenzo[d]oxazole hydrochloride]: 5.00 to 6.00 and 5.00 to 6.00.

One may read the pEC50 as −log10 of the EC50, conventionally taken in molar units.
